The record followed here is the METLIN SMRT retention time set (Domingo-Almenara et al. 2019).

A short description of this data set: gradient 5% acetonitrile 3 min, to 50% in 2 min, to 85% in 15 min, held 3 min, 100 µL/min. The following applies: column: Zorbax Extend-C18 2.1 x 50 mm; eluents: water / acetonitrile, 0.1% formic acid. An outline of the steps:
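Values are retention times taken from adduct peaks that software picked and an analyst inspected. The pure standards were run as mixtures of ~100 molecules on HPLC linked to a quadrupole time-of-flight mass spectrometer, in positive and negative ionization mode. A Zorbax Extend-C18 column (2.1 × 50 mm, 1.8 μm) was used at 100 μL/min with water and acetonitrile, each including 0.1% formic acid.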
Take `Cc1noc(C)c1CNC(=O)c1ccc(OC(F)(F)F)cc1`: the RP-LC retention time was determined as 825 s.

For the compound `COc1ccc(-c2noc(C3CC(=O)N(c4ccc(C)c(C)c4)C3)n2)cc1` (centres undefined), the RP-LC retention time came to 1050 s.

As to `CCn1nc(C)c(CCNC(=O)c2ccc3nc(Cc4ccccc4)oc3c2)c1C`, the RP-LC retention time turned out to be 720 s.

Regarding `COc1ccc(CCC(=O)NCCc2cn(C)c3ncccc23)cc1`, the RP-LC retention time was 669 s.

Take `CC1CCCN(CCCNC(=O)c2nc(CCS(=O)(=O)c3ccc(F)cc3)no2)C1` (centres undefined): the RP-LC retention time stood at 620 s.

In turn, `Cc1ccc(NC(=O)Cn2nc3cc(C)nc(N4CCCC4)n3c2=O)c(C)c1` showed an RP-LC retention time of 791 s.

As for `CCc1nc2cc(-c3noc(-c4cc5ccccc5oc4=O)n3)ccc2o1`, the RP-LC retention time was determined as 1010 s.

In the case of `Cc1noc(C2CCCCN2Cc2nc(-c3cccnc3)no2)n1` (centres undefined), the RP-LC retention time amounted to 656 s.

As for `CCN1CCC(CCNC(=O)C2CCc3sc(C(=O)N4CCCC4)cc3C2)CC1` (centres undefined), the RP-LC retention time was determined as 582 s.

`CNC(=O)c1ccsc1NC(=O)c1ccc(Cl)s1` returned an RP-LC retention time of 882 s.

Take `O=C(NC1CCCC1)c1nc(Nc2ccc(F)cc2)c2ccccc2n1`: the RP-LC retention time is 824 s.

In the case of `Cc1cc(C)cc(N2C=NS(=O)(=O)c3cccnc32)c1`, the RP-LC retention time was 837 s.

As to `COc1ccc(NS(=O)(=O)c2cc(-c3cc(C(F)(F)F)on3)sc2C)c(OC)c1`, the RP-LC retention time stood at 1130 s.

The compound `COC(=O)c1c(C)[nH]c(C(=O)N2CCC(CC(=O)NCc3ccc(Cl)cc3)CC2)c1C` showed an RP-LC retention time of 774 s.

`O=C(CN1C(=O)COc2ccc(C(=O)N3CCc4ccccc43)cc21)N1CCCC1` registered an RP-LC retention time of 760 s.

For the compound `CCC(C)NC(=O)c1cc(COc2ccc(NC(=O)C(C)C)cc2)on1` (centres undefined), the RP-LC retention time was found to be 776 s.

As to `CC(C)Cc1ccc(S(=O)(=O)N(C)C2CCc3nn(CC4CC4)c(=O)n3CC2)cc1` (centres undefined), the RP-LC retention time stood at 914 s.

Regarding `COc1ccc(CNC(=O)c2nnn(Cc3nc(-c4ccc(C)cc4)oc3C)c2N)cc1OC`, the RP-LC retention time was determined as 935 s.

Regarding `CCc1ccc(S(=O)(=O)N2CCC(N3CCN(Cc4ccccc4)C(=O)C3=O)CC2)cc1`, the RP-LC retention time was determined as 859 s.

With `C=CCN1C(=O)COc2ccc(-c3nc(NC(=O)c4cccc(C)c4)sc3C)cc21`, the RP-LC retention time was determined as 1110 s.

With `O=C(NC1(c2nc(-c3cccnc3)no2)CCCCC1)c1ccc(F)c(F)c1`, the RP-LC retention time amounted to 963 s.

With `CCN1CCN(c2nc(-c3cccnc3)nc3ccccc23)CC1`, the RP-LC retention time is 524 s.

In turn, `CCc1ccc(CNC(=O)c2csc(C(=O)NC)n2)cc1` registered an RP-LC retention time of 808 s.

As for `O=C(NCC(c1cccnc1)N1CCc2ccccc21)C(=O)Nc1ccccc1[N+](=O)[O-]` (centres undefined), the RP-LC retention time was 702 s.

Compound `Cc1nn(CC(=O)NCCc2ccco2)c(=O)c2c(-n3cccc3)n(-c3ccc(Cl)cc3)nc12` registered an RP-LC retention time of 973 s.

The compound `COCCN1CCn2cc(S(=O)(=O)Nc3ccc(C)cc3)cc2C1=O` came in with an RP-LC retention time of 715 s.

Consider `NC(=O)CSc1nnc(CCc2nc3ccccc3s2)o1`, for which the RP-LC retention time stood at 633 s.

For the compound `COc1ccc(NC(=O)N2CCC3(CC2)N=C(c2cccc(Cl)c2)C(=O)N3)c(OC)c1`, the RP-LC retention time was 856 s.

`COC(=O)c1ccc(NC(=O)Cc2csc(NC(=O)c3ncccn3)n2)cc1` gave an RP-LC retention time of 642 s.

With `COc1ccc(F)cc1S(=O)(=O)N1C[C@@H]2C[C@H](NC(=O)c3ccccc3)[C@H]1C2`, the RP-LC retention time was 661 s.

Take `CC(=O)N1CCc2ccc(C(=O)NC3CCCCCC3)cc21`: the RP-LC retention time came out at 778 s.

With `O=C1C(c2ccncc2)N(CCCc2ccccc2)C(=O)CN1c1ccccc1` (centres undefined), the RP-LC retention time was determined as 719 s.

The compound `CCOC(=O)C1CCCN(C(=O)CCCn2c(=O)c3cccn3c3ccc(Br)cc32)C1` (centres undefined) registered an RP-LC retention time of 971 s.

As for `CCS(=O)(=O)N1CCCc2cc(C(=O)Nc3cccc(Br)c3)ccc21`, the RP-LC retention time was 1040 s.

Consider `COc1cc(C)c(C(C)C)cc1S(=O)(=O)Nc1cccc(C)n1`, for which the RP-LC retention time is 781 s.

The compound `CCc1ccc(NC(=O)Cn2nc(N3CCSCC3)c3ccccc3c2=O)cc1` registered an RP-LC retention time of 1040 s.

For the compound `O=C(c1ccncc1)N1CC(C(=O)N2CCN(c3ccccn3)CC2)C2(CCCCC2)C1` (centres undefined), the RP-LC retention time amounted to 570 s.

As to `CCN1c2cc(Cl)ccc2C(=O)NC12CCN(C(=O)Nc1cc(C)ccc1OC)CC2`, the RP-LC retention time is 916 s.

`COc1ccc2cccc(NC(=O)c3ccc(F)c(F)c3)c2n1` came in with an RP-LC retention time of 1200 s.

For the compound `Cc1c(CCC(=O)N2CCC(C(N)=O)CC2)c(=O)oc2cc3oc4c(c3cc12)CCCC4`, the RP-LC retention time amounted to 795 s.

In turn, `COc1ccc(-c2ncc3c(n2)CCN(C(=O)Nc2ccc(C)cc2Cl)C3)cc1` gave an RP-LC retention time of 1020 s.

In the case of `O=C(CCS(=O)(=O)c1ccccc1)Nc1nc(-c2ccccc2)cs1`, the RP-LC retention time turned out to be 1120 s.

Compound `CCn1cc(-c2nc(CC(=O)NCc3ccc4c(c3)OCO4)cs2)c2cccnc21` gave an RP-LC retention time of 835 s.

For `CCc1noc(-c2nc(-c3cc(OC)c(OC)c(OC)c3)no2)n1`, the RP-LC retention time was determined as 892 s.

Regarding `Cc1cc(-c2nc(-c3ccc(OC(F)(F)F)cc3)no2)nn1Cc1ccnc(N2CCN(C3CC3)CC2)c1`, the RP-LC retention time is 957 s.

The compound `N#Cc1ccc(NC(=O)Cn2cc(-c3ccccc3)c3ncn(C4CC4)c(=O)c32)cc1` had an RP-LC retention time of 885 s.

`Cc1cc(C)cc(S(=O)(=O)Nc2ccc3nc(N4CCN(CCC#N)CC4)cc(C(=O)O)c3c2)c1` returned an RP-LC retention time of 658 s.

As to `O=C(Nc1ccc(F)cc1)C1CCN(c2cc(N3CCCCC3)ncn2)CC1`, the RP-LC retention time turned out to be 696 s.

Regarding `COCc1cnc2c(c1SCc1ccc(F)cc1)c(=O)n(C)c(=O)n2C`, the RP-LC retention time was found to be 997 s.

In the case of `COc1ccccc1N1CCN(CCNC(=O)Cc2ccc(Cl)cc2)CC1`, the RP-LC retention time was determined as 572 s.

For `Cc1[nH]c2ccccc2c1CC(=O)NCCc1c[nH]c2ccccc12`, the RP-LC retention time was 826 s.

On to `O=C(Nc1c(-c2ccccc2)nc2ccccn12)c1ccco1`, for which the RP-LC retention time turned out to be 598 s.

For `Cc1ccc(NC(=O)c2cnc3c(c2)c(=O)n(C)c(=O)n3-c2ccccc2)cc1F`, the RP-LC retention time was 956 s.

For `COc1ccc(S(=O)(=O)NCc2cccnc2-c2cccc(C)c2)cc1`, the RP-LC retention time was 695 s.

With `CCCN1C(=O)COc2ccc(-c3noc(CNC(=O)Cc4ccc(Cl)cc4)n3)cc21`, the RP-LC retention time turned out to be 1050 s.

In the case of `CCCS(=O)(=O)N1CC(=O)N(c2ccc(F)cc2C)C(C)(C(=O)NC2CCCCCC2)C1` (centres undefined), the RP-LC retention time came out at 988 s.

In the case of `COc1cc(OC)c(NC(=O)Cn2c(=O)n(-c3cccc(C)c3)c(=O)c3c2cc(C)n3C)cc1Cl`, the RP-LC retention time stood at 871 s.

For `CCc1cc(=O)n(CC(=O)Nc2ccccc2F)c(N2CCOCC2)n1`, the RP-LC retention time worked out at 711 s.

Compound `O=C(Nc1c(F)cccc1F)N1CC(c2nc(C3CC3)no2)C1` returned an RP-LC retention time of 670 s.

Compound `COc1cc(OC)c(NC(=O)NC2CCN(c3ccc(F)c(C)c3)C2=O)cc1Cl` (centres undefined) gave an RP-LC retention time of 888 s.

`O=C(NCc1ccco1)C1CCN(S(=O)(=O)c2cc(C(=O)N3CCCCCC3)cs2)CC1` returned an RP-LC retention time of 815 s.

Compound `Cc1cc(C(=O)NC(C)C)n[nH]1` had an RP-LC retention time of 592 s.

Compound `COC(=O)c1cc(OCC(=O)Nc2ccc(OC)cc2)c2cc(OC)ccc2n1` displayed an RP-LC retention time of 775 s.

As to `COc1ccccc1CN1CN=C(Nc2nc(C)c3ccc(C)cc3n2)NC1`, the RP-LC retention time worked out at 568 s.

As to `CCn1cc(C(=O)NCc2cccc(Br)c2)c2cccnc21`, the RP-LC retention time was 854 s.

Regarding `Cc1ccc(C(=O)NCc2nc(-c3ccc(-c4csc(C5CC5)n4)cc3)no2)cc1`, the RP-LC retention time was 1110 s.

In the case of `Cc1cccc(CC(=O)N2C[C@@H]3C[C@H](NC(=O)c4ccccc4)[C@H]2C3)c1`, the RP-LC retention time amounted to 794 s.

For `CCCC(=O)Nc1cnc(-c2ccccc2)nc1`, the RP-LC retention time stood at 815 s.

As to `c1ccc(-c2noc(C3CCN(Cc4ccco4)C3)n2)cc1` (centres undefined), the RP-LC retention time was 644 s.

In turn, `Cn1cc(CC(=O)NCc2ccc(F)c(Cl)c2)c2cccnc21` registered an RP-LC retention time of 725 s.

In turn, `Cn1cnc2c(C(=O)Nc3ccc(Cl)cc3)nn(-c3ccccc3)c2c1=O` registered an RP-LC retention time of 954 s.

For the compound `CCOC(=O)c1cnc2cc(Cl)c(OC)cc2c1N1CCN(c2cccc(Cl)c2)CC1`, the RP-LC retention time is 1240 s.

Take `O=C1CCc2cc(S(=O)(=O)Nc3ccc(F)c(Cl)c3)cc3c2N1CCC3`: the RP-LC retention time worked out at 812 s.

In the case of `CN(C)C(CNC(=O)c1cc(-c2ccccc2)on1)c1ccco1` (centres undefined), the RP-LC retention time was found to be 653 s.

The compound `CCNC(=O)C1CCN(c2cc(SCC(=O)Nc3ccc(C(=O)OCC)cc3)ncn2)CC1` returned an RP-LC retention time of 725 s.

`Cc1cccc(C)c1NC(=O)Cn1cnc2nc(N3CCCC(C(=O)NC4CC4)C3)sc2c1=O` (centres undefined) came in with an RP-LC retention time of 678 s.

`Cc1csc(-c2cc(S(=O)(=O)Nc3ccc(S(N)(=O)=O)cc3)c(C)n2C)n1` gave an RP-LC retention time of 749 s.

Compound `CC(C)CCNC(=O)Cn1ccn2nc(-c3ccccc3)c(CO)c2c1=O` registered an RP-LC retention time of 758 s.

`O=C(NCC1(c2cccs2)CCOCC1)c1ccccc1F` gave an RP-LC retention time of 763 s.
